From patent US20140363898A1, “METHOD FOR THE IDENTIFICATION OF BETA-SHEET AGGREGATED PROTEIN LIGANDS” (Hoffmann-La Roche Inc., priority 2011, published 2014)

What was measured:
[1] = biological target: T1, aggregated Tau (recombinant human microtubule associated protein Tau) (Homo sapiens, UniProt P10636); experiment: Thiazine-red fluorescence displacement assay on aggregated tau; conditions: displacement of Thiazin-red at the high affinity binding site; compound 0.3 nM to 10000 nM; 30 min room temperature; average of different experiments; read-out: aggr. TAU IC50
T1 construct: made in house; host or cells: E. coli
Procedure: (§1) Recombinant human-microtubule associated protein Tau purified from E. coli is aggregated at a concentration of 5 μM with Arachidonic Acid (100 μM) in Tris 10 mM pH8, 24h at 37° C. Synthetic Aβ40 is aggregated with Arachidonic Acid (100 μM) in Tris 10 mM pH8, for three days at 37° C., under shaking at 150 rpm. […] In parallel, auto fluorescence of the compound is measured together with the aggregated proteins, but without Thiazin-red. As negative control, ligand and aggregated protein is used and as positive control, Thiazin-red, reference compound with known activity and aggregated protein is used. Assay is performed in Perkin Elmer OptiPlate 384, black, 45 ul assay volume, assay buffer is DPBS no CaCl2 no MgCl2 (GIBCO N. 14020). Tested compounds are diluted in DMSO and 2 μl is added to the assay (5% DMSO final). Assay is started by the addition of the aggregated protein (competitive condition). Plates are shortly shacked (1 min with Sterico variomag teleshake) and incubated for 30 min at room temperature. Measurement are done with En:Vision (Perkin Elmer), at Excitation 531 nm/Emission 595 nm.

[2] = biological target: T2, aggregated alpha-synuclein (human recombinant) (Homo sapiens, UniProt P37840); experiment: Thiazine-red fluorescence displacement assay on aggregated alpha-synuclein; conditions: displacement of Thiazin-red at the high affinity binding site; compound 0.3 nM to 10000 nM; 30 min room temperature; average of different experiments; read-out: aggr. α-syn IC50
T2 construct: made in house; host or cells: E. coli
Procedure: Human recombinant-Alpha-synuclein-purified from E. coli is aggregated with Arachidonic Acid (100 μM) in Tris 10 mM pH 8, for 5 days at 37° C., under shaking at 150 rpm.
Thiazin-red will be added at the concentration corresponding to the Kd to the respective aggregated protein binding site, to induce a fluorescent signal that can be inhibited by the addition of a displacer compound
In parallel, auto fluorescence of the compound is measured together with the aggregated proteins, but without Thiazin-red. As negative control, ligand and aggregated protein is used and as positive control, Thiazin-red, reference compound with known activity and aggregated protein is used.
Assay is performed in Perkin Elmer OptiPlate 384, black, 45 ul assay volume, assay buffer is DPBS no CaCl2 no MgCl2 (GIBCO N. 14020). Tested compounds are diluted in DMSO and 2 μl is added to the assay (5% DMSO final). Assay is started by the addition of the aggregated protein (competitive condition). Plates are shortly shacked (1 min with Sterico variomag teleshake) and incubated for 30 min at room temperature. Measurement are done with En:Vision (Perkin Elmer), at Excitation 531 nm/Emission 595 nm.

[3] = biological target: T3, aggregated Aβ40 (synthetic) (Homo sapiens, UniProt P05067); experiment: Thiazine-red fluorescence displacement assay on aggregated Aβ40; conditions: displacement of Thiazin-red at the high affinity binding site; compound 0.3 nM to 10000 nM; 30 min room temperature; average of different experiments; read-out: aggr. Aβ40 IC50
T3 construct: Id; No. 4; host or cells: synthetic peptide
Procedure: as §1

T1 sequence (P10636 1-441 isoform P10636-8): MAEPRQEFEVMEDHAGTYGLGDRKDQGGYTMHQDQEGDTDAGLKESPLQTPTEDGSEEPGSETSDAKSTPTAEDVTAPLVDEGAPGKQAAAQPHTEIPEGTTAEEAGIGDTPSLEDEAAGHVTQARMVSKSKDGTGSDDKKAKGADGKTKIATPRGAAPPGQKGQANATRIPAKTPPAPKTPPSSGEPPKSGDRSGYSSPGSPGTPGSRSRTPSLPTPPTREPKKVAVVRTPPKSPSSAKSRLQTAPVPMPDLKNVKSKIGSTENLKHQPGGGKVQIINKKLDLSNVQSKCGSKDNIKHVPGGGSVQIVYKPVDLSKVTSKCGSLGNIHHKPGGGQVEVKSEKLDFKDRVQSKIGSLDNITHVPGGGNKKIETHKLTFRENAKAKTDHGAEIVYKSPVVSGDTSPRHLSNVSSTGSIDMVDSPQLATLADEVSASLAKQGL
T3 sequence (P05067 672-711): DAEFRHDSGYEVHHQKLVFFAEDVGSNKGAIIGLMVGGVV

IC50 [1] [nM] | IC50 [2] [nM] | IC50 [3] [nM] | Compound
3260 | 7020 |  | CNc1ccc(-c2nc3ccc(O)cc3s2)cc1 [PIB]
1550 | 1720 | 1280 | CN(C)c1ccc(C(=C2C=CC(=[N+](C)C)C=C2)c2ccc(N(C)C)cc2)cc1 [Crystal Violet]
494 | 239 | 307 | COc1cc(/C=C/c2ccc(O)cc2)ccc1/C=C/c1ccc(O)cc1 [MeXO4]
1 | 7.6 | 88.8 | Cc1cc(-c2ccc(/N=N/c3ccc4c(S(=O)(=O)O)cc(S(=O)(=O)O)c(N)c4c3O)c(C)c2)ccc1/N=N/c1ccc2c(S(=O)(=O)O)cc(S(=O)(=O)O)c(N)c2c1O [Evans Blue]

Second part, the molecule before the results:

Compound | IC50 [1] [nM] | IC50 [2] [nM] | IC50 [3] [nM]
CC(=C(C#N)C#N)c1ccc2cc(N(C)CCF)ccc2c1 [FDDNP] | 1640 | 1180 | 1470
O=C(O)c1cc(/C=C/c2ccc(/C=C/c3ccc(O)c(C(=O)O)c3)c(Br)c2)ccc1O [BSB] | 18.4 | 36.3 | 78.4
CNc1ccc(-c2ccc3ccccc3n2)cc1 [BF-158] | > 10000 | > 10000 | > 10000
Nc1c(/N=N/c2ccc(-c3ccc(/N=N/c4cc(S(=O)(=O)O)c5ccccc5c4N)cc3)cc2)cc(S(=O)(=O)O)c2ccccc12 [Congo Red] | 5.4 | 4.4 | 13.6
CN(C)c1ccc(-c2cn3cc(I)ccc3n2)cc1 [IMPY] | 2710 | 5700 | 
CNc1ccc(-c2nc3ccc(O)cc3s2)cn1 [AZD2184] | 9800 | > 10000 | > 10000
